The text below walks through data of paper PMC9057582, “HIF inhibitor 32-134D eradicates murine hepatocellular carcinoma in combination with anti-PD1 therapy” (The Journal of Clinical Investigation, 2022).

This data set relates to Hep3B tumor xenograft. The experiment in a line: Hep3B tumor xenograft growth in nude mice. Type of data set: in vivo, nude (nu/nu) mice. The protocol: Hep3B cells were injected subcutaneously into nude (nu/nu) mice and when tumors reached a volume of 150 mm^3 (designated day 1), the mice were treated with vehicle or 32-134D by daily intraperitoneal injection. […] Treatment with 32-134D for 17 days had no effect on mouse appearance, behavior, or body weight (Supplemental Figure 4B). We treated additional mice with 32-134D at a dose of 40 mg/kg versus vehicle and confirmed inhibition of tumor growth without effects on body weight (Supplemental Figure 5, A–C).
Figure 2 Effect of 32-134D on Hep3B tumor xenograft growth and vascularization. (A) Female nude mice received a subcutaneous injection of […] Hep3B cells. When tumors reached a volume of 150 mm^3 (designated treatment day 1), the mice were randomized to receive a daily intraperitoneal injection of 32-134D at a dose of 0 (blue), 20 (black), 40 (red), or 80 (green) mg/kg. Data are presented as mean tumor volume (± SEM; n = 4 each). **P < 0.01, ***P < 0.001 (ANOVA with Bonferroni’s post hoc test). (B) Gross pathology of tumors harvested from vehicle-treated (top panel) and 32-134D–treated (bottom panel) mice. (C) Nuclear extracts prepared from tumors were assayed by immunoblotting using antibodies against the indicated proteins. (D) Total RNA was isolated from tumor tissue and analyzed by RT-qPCR using primers specific for the indicated mRNAs and results (mean ± SEM, n = 4) were normalized to the mean value for tumors from vehicle-treated mice. (E) ELISA for the indicated proteins was performed using aliquots of tumor lysates (mean ± SEM; n = 3–4 tumors each). *P < 0.05 (Mann-Whitney test). (F) Formalin-fixed and paraffin-embedded tumor sections were analyzed by immunohistochemistry using an antibody against CD31 to identify vascular endothelial cells. Scale bar: 100 μm. The total CD31^+ vessel area per field was quantified using ImageJ (mean ± SEM; n = 4 tumors with 5 sections per tumor). *P < 0.05 (Student’s t test).
Female nude mice (NCI Athymic NCr-nu/nu) and male C57L mice were purchased from Charles River and The Jackson Laboratory, respectively. Hep3B (8 × 10^6) and Hepa1-6 (1 × 10^7) cells were resuspended in PBS and Matrigel (1:1, vol/vol) and implanted subcutaneously in 6- to 8-week-old mice, and tumor volume was calculated as V = abc × 0.52. For Hep3B tumor studies, once tumors reached 100 to 150 mm^3, mice were randomized into groups to receive daily intraperitoneal injection of either 32-134D or vehicle only (20% PEG-400, 10% Cremophor EL, 10% ethanol in PBS). For Hepa1-6 tumors, mice were randomized to receive treatment once tumors became palpable (tumor eradication experiment) or reached a volume of 200 mm^3 (harvesting of tumors for flow cytometry and analysis of RNA and protein expression). Tumors were harvested 4 hours after the last treatment (see Supplemental Table 6 for reagent sources).
Supplemental Figure 4. […]
Female nude mice received a subcutaneous injection of 8 x 10^6 Hep3B cells. […] (A) Tumor volumes were determined every other day. […] (B) Body weights of tumor-bearing mice were measured every other data and are presented as mean + SEM (n = 3-4 per group). […]
Supplemental Figure 5. […] (A-D) Tumor bearing mice were treated with daily intraperitoneal injection of vehicle (black) or 32-134D (red; 40 mg/kg) and individual (A) and mean (B) tumor volumes as well as body weight (C) were determined every other day and mean tumor weights (D) were determined on day 17 (mean + SEM, n =4). *P < 0.05 by ANOVA. […]

The structures appear in SMILES notation.

Turning to `Brc1ccc2c(-c3csc(-c4c[nH]c5c(Br)cccc45)n3)c[nH]c2c1` [Compound 32-134D], the tumor xenograft growth entry reads like this: (20 mg/kg daily intraperitoneal, P < 0.01 vs vehicle) “partial growth inhibition”; (40 mg/kg daily intraperitoneal, P < 0.001 vs vehicle) “maximal growth inhibition”; (80 mg/kg daily intraperitoneal, P < 0.001 vs vehicle) “maximal growth inhibition”. Under “40 mg/kg, day 17, P < 0.05”, the “tumor mass at harvest” value is reported as “significantly decreased”. The “mouse appearance, behavior, or body weight” value (treatment for 17 days) is “no effect”.
